# Reference: patent EP0413289B1 (priority 1989, dated 1991)
# Legend:
# [1] = system: panel of fifteen human rhinovirus (HRV) serotypes; assay: plaque reduction assay, panel of fifteen human rhinovirus serotypes (MIC50/MIC80); format: cell-based; conditions: for MIC50: concentration required to inhibit 50% of the tested serotypes, HeLa (Wisconsin) cells, read-out: MIC₅₀ (Rhinovirus); for MIC₈₀ (N) (Rhinovirus): concentration required to inhibit 80% of the tested serotypes, N in parentheses = number of serotypes tested
# Method: (§1) The MIC values were determined by a standard plaque reduction assay as follows: HeLa (Wisconsin) cells in monolayers were infected at a concentration of virus to give approximately 80 plaques per monolayer in the virus control (no drug present). The compound to be tested was serially diluted and included in the agar-medium overlay and in some cases, during the adsorption period as well. The MIC was determined to be that concentration of compound which reduced the number of plaques by 50% with respect to the untreated virus control.
# (§2) In the standard test procedures, the compounds were tested against a panel of fifteen human rhinovirus (HRV) serotypes, namely HRV-2, -1A, -1B, -6, -14, -21, -22, -15, -25, -30, -50, -67, -89, -86 and -41. The MIC value for each rhinovirus serotype was determined, and the efficacy of each compound was determined in terms of MIC₅₀ and MIC₈₀ values, which is the concentration of the compound required to inhibit 50% and 80%, respectively, of the tested serotypes.
# The following Table gives the testing results with the compounds of the invention. For some of the compounds, the MIC₅₀ and MIC₈₀ values are based on the testing of fewer than 15 rhinovirus serotypes. In these cases the number of serotypes (N) is indicated in parentheses after the MIC₈₀ figure.
# [2] = system: HRV-21; assay: plaque reduction assay, rhinovirus serotype 21; format: cell-based, human rhinovirus (HRV); conditions: Enterovirus, HRV21, 50% plaque reduction, HeLa (Wisconsin) cells, read-out: MIC
# Method: as §1, §2
# (§3) The following Table compares the MIC values for the compound of Example 10(c) and the methylated derivative of Example 11(c) against 15 rhinovirus serotypes: […]
# [3] = system: HRV-25; assay: plaque reduction assay, rhinovirus serotype 25; format: cell-based, human rhinovirus (HRV); conditions: Enterovirus, HRV25, 50% plaque reduction, HeLa (Wisconsin) cells, read-out: MIC
# Method: as §1, §2, §3
# [4] = system: HRV-6; assay: plaque reduction assay, rhinovirus serotype 6; format: cell-based, human rhinovirus (HRV); conditions: Enterovirus, HRV6, 50% plaque reduction, HeLa (Wisconsin) cells, read-out: MIC
# Method: as §1, §2, §3
# [5] = system: HRV-67; assay: plaque reduction assay, rhinovirus serotype 67; format: cell-based, human rhinovirus (HRV); conditions: Enterovirus, HRV67, 50% plaque reduction, HeLa (Wisconsin) cells, read-out: MIC
# Method: as §1, §2, §3
# [6] = system: HRV-1B; assay: plaque reduction assay, rhinovirus serotype 1B; format: cell-based, human rhinovirus (HRV); conditions: 50% plaque reduction, HeLa (Wisconsin) cells, read-out: MIC
# Method: as §1, §2, §3
# [7] = system: HRV-15; assay: plaque reduction assay, rhinovirus serotype 15; format: cell-based, human rhinovirus (HRV); conditions: Enterovirus, HRV15, 50% plaque reduction, HeLa (Wisconsin) cells, read-out: MIC
# Method: as §1, §2, §3
# [8] = system: HRV-2; assay: plaque reduction assay, rhinovirus serotype 2; format: cell-based, human rhinovirus (HRV); conditions: 50% plaque reduction, HeLa (Wisconsin) cells, read-out: MIC
# Method: as §1, §2, §3
# [9] = system: HRV-14; assay: plaque reduction assay, rhinovirus serotype 14; format: cell-based, human rhinovirus (HRV); conditions: 50% plaque reduction, HeLa (Wisconsin) cells, read-out: MIC
# Method: as §1, §2, §3
# [10] = system: HRV-1A; assay: plaque reduction assay, rhinovirus serotype 1A; format: cell-based, human rhinovirus (HRV); conditions: 50% plaque reduction, HeLa (Wisconsin) cells, read-out: MIC
# Method: as §1, §2, §3
# [11] = system: HRV-86; assay: plaque reduction assay, rhinovirus serotype 86; format: cell-based, human rhinovirus (HRV); conditions: Enterovirus, HRV86, 50% plaque reduction, HeLa (Wisconsin) cells, read-out: MIC
# Method: as §1, §2, §3
# [12] = system: HRV-50; assay: plaque reduction assay, rhinovirus serotype 50; format: cell-based, human rhinovirus (HRV); conditions: Enterovirus, HRV50, 50% plaque reduction, HeLa (Wisconsin) cells, read-out: MIC
# Method: as §1, §2, §3
# [13] = system: HRV-41; assay: plaque reduction assay, rhinovirus serotype 41; format: cell-based, human rhinovirus (HRV); conditions: Enterovirus, HRV41, 50% plaque reduction, HeLa (Wisconsin) cells, read-out: MIC
# Method: as §1, §2, §3
# [14] = system: Polio 2; assay: microbe, parasite or virus in culture; format: cell-based; conditions: HeLa, read-out: MIC (Polio 2)
# [15] = system: HRV-30; assay: plaque reduction assay, rhinovirus serotype 30; format: cell-based, human rhinovirus (HRV); conditions: Enterovirus, HRV30, 50% plaque reduction, HeLa (Wisconsin) cells, read-out: MIC
# Method: as §1, §2, §3
# [16] = system: HRV-89; assay: plaque reduction assay, rhinovirus serotype 89; format: cell-based, human rhinovirus (HRV); conditions: 50% plaque reduction, HeLa (Wisconsin) cells, read-out: MIC
# Method: as §1, §2, §3
# [17] = system: HRV-22; assay: plaque reduction assay, rhinovirus serotype 22; format: cell-based, human rhinovirus (HRV); conditions: Enterovirus, HRV22, 50% plaque reduction, HeLa (Wisconsin) cells, read-out: MIC
# Method: as §1, §2, §3
compound,measurement,setting,value
"Cc1cc(CCCCCOc2c(C)cc(-c3nnc(C)o3)cc2C)on1 [Example 14, 5-{5-[2,6-Dimethyl-4-(5-methyl-1,3,4-oxadiazol-2-yl)phenoxy]pentyl}-3-methylisoxazole]",MIC50,[1],0.34 mg/L
same,MIC₈₀ (N) (Rhinovirus),[1],0.67 (2) micrograms per milliliter
"Cc1cc(CCCOc2c(C)cc(-c3nc(C)no3)cc2C)on1 [3(b), 5-{3-[2,6-Dimethyl-4-(3-methyl-1,2,4-oxadiazol-5-yl)-phenoxy]propyl}-3-methylisoxazole]",MIC50,[1],0.026 mg/L
same,MIC₈₀ (N) (Rhinovirus),[1],0.12 (15) micrograms per milliliter
"CCc1cc(CCCOc2c(C)cc(-c3noc(C)n3)cc2C)on1 [Example 8(c), 5-{3-[2,6-dimethyl-4-(5-methyl-1,2,4-oxadiazol-3-yl)phenoxy]propyl}-3-ethylisoxazole]",MIC50,[1],0.017 mg/L
same,MIC₈₀ (N) (Rhinovirus),[1],0.05 (6) micrograms per milliliter
"CCCc1cc(CCCOc2c(C)cc(-c3nc(C)no3)cc2C)on1 [5(e), 5-{3-[2,6-dimethyl-4-(3-methyl-1,2,4-oxadiazol-5-yl)phenoxy]propyl}-3-(n-propyl)isoxazole]",MIC50,[1],0.036 mg/L
same,MIC₈₀ (N) (Rhinovirus),[1],0.06 (7) micrograms per milliliter
"CCc1cc(CCCOc2c(C)cc(-c3nc(C)no3)cc2C)on1 [4(d), 5-{3-[2,6-Dimethyl-4-(3-methyl-1,2,4-oxadiazol-5-yl)-phenoxy]propyl}-3-ethylisoxazole]",MIC50,[1],0.042 mg/L
same,MIC₈₀ (N) (Rhinovirus),[1],0.15 (15) micrograms per milliliter
"Cc1cc(CCCOc2c(C)cc(-c3nnc(C)o3)cc2C)on1 [12(d), 5-{3-[2,6-Dimethyl-4-(5-methyl-1,3,4-oxadiazol-2-yl)-phenoxy]propyl}-3-methylisoxazole]",MIC50,[1],0.054 mg/L
same,MIC₈₀ (N) (Rhinovirus),[1],0.35 (6) micrograms per milliliter
"Cc1cc(CCCCCCCOc2ccc(-c3nnc(C)o3)cc2)on1 [Example 13, 3-Methyl-5-{7-[4-(5-methyl-1,3,4-oxadiazol-2-yl)phenoxy]-heptyl}isoxazole]",MIC50,[1],2.3 mg/L
same,MIC₈₀ (N) (Rhinovirus),[1],3.2 (2) micrograms per milliliter
"Cc1cc(CCCCCOc2c(Cl)cc(-c3nnco3)cc2Cl)on1 [Example 10(c), 5-{5-[2,6-Dichloro-4-(1,3,4-oxadiazol-2-yl)phenoxy]-pentyl}-3-methylisoxazole, reference compound]",EC50,[2],0.24 mg/L
same,EC50,[3],2.42 mg/L
same,EC50,[4],7.06 mg/L
same,EC50,[5],0.64 mg/L
same,EC50,[6],0.53 mg/L
same,EC50,[7],1.92 mg/L
same,EC50,[8],0.41 mg/L
same,EC50,[9],2.02 mg/L
same,EC50,[10],1.45 mg/L
same,EC50,[11],1.28 mg/L
same,EC50,[12],0.091 mg/L
same,EC50,[13],2.76 mg/L
same,MIC50,[1],0.25 mg/L
same,MIC₈₀ (N) (Rhinovirus),[1],0.91 micrograms per milliliter
same,EC50,[14],2.24 mg/L
same,EC50,[15],0.1 mg/L
same,EC50,[16],0.28 mg/L
same,EC50,[17],0.45 mg/L
"Cc1cc(CCCCCOc2ccc(-c3nnco3)cc2)on1 [Example 1, 3-Methyl-5-{5-[4-(1,3,4-oxadiazol-2-yl)phenoxy]pentyl}-isoxazole, reference compound]",MIC₈₀ (N) (Rhinovirus),[1],2.56 (1) micrograms per milliliter
same,EC50,[14],0.05 mg/L
"Cc1cc(CCCCCOc2c(Cl)cc(-c3nnc(C)o3)cc2Cl)on1 [Example 11(c), 5-{5-[2,6-dichloro-4-(5-methyl-1,3,4-oxadiazol-2-yl)phenoxy]pentyl}-3-methylisoxazole]",EC50,[2],0.0092 mg/L
same,EC50,[3],0.7 mg/L
same,EC50,[4],0.46 mg/L
same,EC50,[5],0.1 mg/L
same,EC50,[6],0.14 mg/L
same,EC50,[7],0.42 mg/L
same,EC50,[8],0.016 mg/L
same,EC50,[9],0.19 mg/L
same,EC50,[10],0.44 mg/L
same,EC50,[11],0.57 mg/L
same,EC50,[12],0.041 mg/L
same,EC50,[13],99 mg/L
same,MIC50,[1],0.14 mg/L
same,MIC₈₀ (N) (Rhinovirus),[1],0.46 (15) micrograms per milliliter
same,EC50,[15],0.031 mg/L
same,EC50,[16],0.01 mg/L
same,EC50,[17],0.018 mg/L
"Cc1cc(CCCCCOc2c(C)cc(-c3nc(C)no3)cc2C)on1 [2(b), 5-{5-[2,6-dimethyl-4-(3-methyl-1,2,4-oxadiazol-5-yl)phenoxy]pentyl}-3-methylisoxazole]",MIC50,[1],0.053 mg/L
same,MIC₈₀ (N) (Rhinovirus),[1],0.42 (6) micrograms per milliliter
"Cc1cc(CCCOc2c(C)cc(-c3noc(C)n3)cc2C)on1 [Example 7, 5-{3-[2,6-Dimethyl-4-(5-methyl-1,2,4-oxadiazol-3-yl)phenoxy]propyl}-3-methylisoxasole]",MIC50,[1],0.012 mg/L
same,MIC₈₀ (N) (Rhinovirus),[1],0.069 (13) micrograms per milliliter
"Cc1cc(CCCCCOc2c(C)cc(-c3noc(C)n3)cc2C)on1 [Example 6, 5-{5-[2,6-dimethyl-4-(5-methyl-1,2,4-oxadiazol-3-yl)phenoxy]pentyl}-3-methylisoxazole]",MIC50,[1],0.018 mg/L
same,MIC₈₀ (N) (Rhinovirus),[1],0.10 (5) micrograms per milliliter
"CCCc1cc(CCCOc2c(C)cc(-c3noc(C)n3)cc2C)on1 [Example 9, 5-{3-[2,6-Dimethyl-4-(5-methyl-1,2,4-oxadiazol-3-yl)phenoxy]propyl}-3-propylisoxazole]",MIC50,[1],0.025 mg/L
same,MIC₈₀ (N) (Rhinovirus),[1],0.04 (6) micrograms per milliliter
